The source of these data is patent US9085555B2, “Complement pathway modulators and uses thereof” (priority 2011, dated 2015).

The first test deals with Factor D (Homo sapiens (Human), UniProt P00746). Description: biochemical. The format is biochemical.
Chain of Factor D (P00746 26-253): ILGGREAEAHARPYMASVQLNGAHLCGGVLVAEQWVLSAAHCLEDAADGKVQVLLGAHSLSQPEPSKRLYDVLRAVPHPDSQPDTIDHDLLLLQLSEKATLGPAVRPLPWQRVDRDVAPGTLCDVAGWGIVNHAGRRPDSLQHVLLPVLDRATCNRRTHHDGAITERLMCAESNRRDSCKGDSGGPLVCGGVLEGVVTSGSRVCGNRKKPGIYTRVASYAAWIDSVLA
Settings: not given
In general, IC50 refers to the midpoint of a concentration-inhibition curve. In turn, `NC(=O)n1cc(NC(=O)N2C[C@@H](N)C[C@H]2C(=O)NC[C@H]2CCCC[C@@H]2O)c2ccccc21` (relative stereo) [Example 75, (2S,4S)-4-Amino-pyrrolidine-1,2-dicarboxylic acid 1-[(1-carbamoyl-1H-indol-3-yl)-amide] 2-[((1R*,2S*)-2-hydroxy-cyclohexylmethyl)-amide]] yielded an IC50 of 12600 nM. Same read-out and setting: the value for `NC(=O)n1cc(NC(=O)N2C[C@H]3C[C@H]3[C@H]2C(=O)NCc2cccc(Cl)c2)c2ccccc21` (relative stereo) [Example 167, (1R*,2S*,5S*)-3-Aza-bicyclo[3.1.0]hexane-2,3-dicarboxylic acid 3-[(1-carbamoyl-1H-indol-3-yl)-amide] 2-(3-chloro-benzylamide)] was 108 nM.

The same test, now with this note: read-out: IC50.
With `COc1cc(F)c(F)c(CNC(=O)[C@@H]2SCCN2C(=O)Nc2cn(C(N)=O)c3ccccc23)c1` [Example 235, (S)-Thiazolidine-2,3-dicarboxylic acid 3-[(1-carbamoyl-1H-indol-3-yl)-amide] 2-(2,3-difluoro-5-methoxy-benzylamide)], the IC50 was found to be 80 nM. Regarding `NC[C@H]1C[C@@H](C(=O)NCc2cccc(Cl)c2F)N(C(=O)Nc2cn(C(N)=O)c3ccccc23)C1` [Example 405, 2S,4R)-4-Aminomethyl-pyrrolidine-1,2-dicarboxylic acid 1-[(1-carbamoyl-1H-indol-3-yl)-amide]2-(3-chloro-2-fluoro-benzylamide], the IC50 is 295 nM. With `CC(=O)c1cn(CC(=O)N2C[C@H](F)C[C@H]2C(=O)NCc2cc(-c3nnn[nH]3)cc(Cl)c2F)c2ccccc12` [Example 521, (2S,4R)-1-[2-(3-Acetyl-indol-1-yl)-acetyl]-4-fluoro-pyrrolidine-2-carboxylic acid 3-chloro-2-fluoro-5-(1H-tetrazol-5-yl)-benzylamide], the IC50 worked out at 37 nM. For the compound `NC(=O)n1cc(NC(=O)N2C[C@@H](N)C[C@H]2C(=O)NCc2cccc(-n3cccc3)c2)c2ccccc21` [Example 40, (2S,4S)-4-Amino-pyrrolidine-1,2-dicarboxylic acid 1-[(1-carbamoyl-1H-indol-3-yl)-amide] 2-(3-pyrrol-1-yl-benzylamide)], the IC50 was 11200 nM. On to `NC(=O)n1cc(NC(=O)N2[C@@H]3C[C@@H]3C[C@H]2C(=O)NCc2cccc(Cl)c2F)c2cc(OCCn3ccnc3)ccc21` [Example 389, 1R,3S,5R)-2-Aza-bicyclo[3.1.0]hexane-2,3-dicarboxylic acid 2-{[1-carbamoyl-5-(2-imidazol-1-yl-ethoxy)-1H-indol-3-yl]-amide}3-(3-chloro-2-fluoro-benzylamide], for which the IC50 worked out at 30 nM. On the same count and under the same terms, with `COC[C@@]12C[C@@H](C(=O)NCc3cccc(Cl)c3F)N(C(=O)Cn3cc(C(C)=O)c4cccnc43)[C@@H]1C2` [Example 490, (1R,3S,5S)-2-[2-(3-Acetyl-pyrrolo[2,3-b]pyridin-1-yl)-acetyl]-5-methoxymethyl-2-aza-bicyclo[3.1.0]hexane-3-carboxylic acid 3-chloro-2-fluoro-benzylamide] the figure was 214 nM; with `CC(=O)c1cn(CC(=O)N2[C@H](C(=O)NCc3cccc(Cl)c3F)C[C@@]3(CO)C[C@@H]23)c2ccccc12` [Example 611, (1R,3S,5S)-2-[2-(3-Acetyl-indol-1-yl)-acetyl]-5-hydroxymethyl-2-aza-bicyclo[3.1.0]hexane-3-carboxylic acid 3-chloro-2-fluoro-benzylamide], 141 nM.

Regarding `NC(=O)n1cc(NC(=O)N2C[C@@H](N)C[C@H]2C(=O)NCc2cccc(F)c2F)c2ccccc21` [Example 52, (2S,4S)-4-Amino-pyrrolidine-1,2-dicarboxylic acid 1-[(1-carbamoyl-1H-indol-3-yl)-amide] 2-(2,3-difluoro-benzylamide)], the IC50 is 400 nM. In the case of `NC(=O)n1cc(NC(=O)N2CCC[C@H]2C(=O)NCc2cccc(Cl)c2F)c2ccccc21` [Example 170, (S)-Pyrrolidine-1,2-dicarboxylic acid 1-[(1-carbamoyl-1H-indol-3-yl)-amide] 2-(3-chloro-2-fluoro-benzylamide)], the 50% inhibitory concentration (IC50) was found to be 30 nM.

As for “(S)-1-[2-(3-Formyl-indol-1-yl)- acetyl]-pyrrolidine-2- carboxylic acid (3-trifluoro- methoxy-phenyl)-amide [Example 559]”, the IC50 is 15700 nM. As for `NC(=O)n1cc(NC(=O)N2[C@@H]3C[C@@H]3C[C@H]2C(=O)N[C@H](CO)c2cccc(Br)c2)c2ccccc21` [Example 217, (1R,3S,5R)-2-Azabicyclo[3.1.0]hexane-2,3-dicarboxylic acid 3-{[(S)-1-(3-bromo-phenyl)-2-hydroxy-ethyl]-amide} 2-[(1-carbamoyl-1H-indol-3-yl)-amide]], the IC50 is 41 nM. With `CO[C@H]1[C@@H](C(=O)NCc2cccc(Cl)c2F)N(C(=O)Nc2cn(C(N)=O)c3ccccc23)C[C@@H]1F` [Example 204, (2S,3S,4S)-4-Fluoro-3-methoxy-pyrrolidine-1,2-dicarboxylic acid 1-[(1-carbamoyl-1H-indol-3-yl)-amide] 2-(3-chloro-2-fluoro-benzylamide)], the IC50 came out at 7 nM.

Consider `C=CCOc1ccc2c(c1)c(NC(=O)N1[C@@H]3C[C@@H]3C[C@H]1C(=O)NCc1cccc(Cl)c1F)cn2C(N)=O` [Example 268, (1R,3S,5R)-2-Aza-bicyclo[3.1.0]hexane-2,3-dicarboxylic acid 2-[(5-allyloxy-1-carbamoyl-1H-indol-3-yl)-amide] 3-(3-chloro-2-fluoro-benzylamide)], for which the IC50 was 8 nM. For `NC(=O)c1nn(CC(=O)N2[C@@H]3C[C@@H]3C[C@H]2C(=O)Nc2cccc(OC(F)(F)F)c2F)c2cnccc12` [Example 724], the half-inhibitory concentration (IC50) is 61 nM. On the same count and under the same terms, with `NC(=O)n1cc(NC(=O)N2CCS[C@H]2C(=O)NCc2cccc(Cl)c2F)c2cc(OCCO)ccc21` [Example 380, S)-Thiazolidine-2,3-dicarboxylic acid 3-{[1-carbamoyl-5-(2-hydroxy-ethoxy)-1H-indol-3-yl]-amide}2-(3-chloro-2-fluoro-benzylamide] the figure was 17 nM; with `NC(=O)n1cc(NC(=O)N2C[C@H](F)C[C@H]2C(=O)NCc2cccnc2)c2ccccc21` [Example 3, (2S,4R)-4-Fluoro-pyrrolidine-1,2-dicarboxylic acid 1-[(1-carbamoyl-1H-indol-3-yl)-amide] 2-[(pyridin-3-ylmethyl)-amide]], 450 nM. Consider `COC(=O)Cc1ccc2c(C(C)=O)cn(CC(=O)N3C[C@H](F)C[C@H]3C(=O)NCc3cccc(Cl)c3F)c2c1` [Example 549, (3-Acetyl-1-{2-[(2S,4R)-2-(3-chloro-2-fluoro-benzylcarbamoyl)-4-fluoro-pyrrolidin-1-yl]-2-oxo-ethyl}-1H-indol-6-yl)-acetic acid methyl ester], for which the IC50 stood at 69 nM. `CC(=O)N[C@H]1[C@@H](C(=O)NCc2cccc(Cl)c2F)N(C(=O)Nc2cn(C(N)=O)c3ccccc23)C[C@@H]1F` [Example 206, (2S,3S,4S)-3-Acetylamino-4-fluoro-pyrrolidine-1,2-dicarboxylic acid 1-[(1-carbamoyl-1H-indol-3-yl)-amide] 2-(3-chloro-2-fluoro-benzylamide)]: the IC50 is 187 nM. `CC(=O)c1cn(CC(=O)N2[C@@H]3CC[C@@H](C3)[C@H]2C(=O)NCc2cccc(Cl)c2F)c2ccccc12` [Example 512, (1R,3S,4S)-2-[2-(3-Acetyl-indol-1-yl)-acetyl]-2-aza-bicyclo[2.2.1]heptane-3-carboxylic acid 3-chloro-2-fluoro-benzylamide]: the IC50 was found to be 411 nM.

For `CC(=O)c1cn(CC(=O)N2[C@@H]3C[C@@H]3C[C@H]2C(=O)NCc2cccc(Cl)c2F)c2nc(C(=O)O)ccc12` [Example 704, 3-Acetyl-1-{2-[(1R,3S,5R)-3-(3-chloro-2-fluoro-benzylcarbamoyl)-2-aza-bicyclo[3.1.0]hex-2-yl]-2-oxo-ethyl}-1H-pyrrolo[2,3-b]pyridine-6-carboxylic acid], the IC50 stood at 23 nM.

For `CC(=O)c1cn(CC(=O)N2C[C@H](F)C[C@H]2C(=O)NCc2cccc(Cl)c2F)c2cc(C(=O)O)ccc12` [Example 597, 3-Acetyl-1-{2-[(2S,4R)-2-(3-chloro-2-fluoro-benzylcarbamoyl)-4-fluoro-pyrrolidin-1-yl]-2-oxo-ethyl}-1H-indole-6-carboxylic acid], the IC50 turned out to be 14 nM. With `CC(=O)c1cn(CC(=O)N2C[C@H](F)C[C@H]2C(=O)NCc2cccc(Cl)c2F)c2ncccc12` [Example 547, (2S,4R)-1-[2-(3-Acetyl-pyrrolo[2,3-b]pyridin-1-yl)-acetyl]-4-fluoro-pyrrolidine-2-carboxylic acid 3-chloro-2-fluoro-benzylamide], the IC50 is 38 nM.

For `CC(=O)c1cn(CC(=O)N2C[C@H](F)C[C@H]2C(=O)NCc2cccc(Cl)c2F)c2ccc(O)cc12` [Example 579, (2S,4R)-1-[2-(3-Acetyl-5-hydroxy-indol-1-yl)-acetyl]-4-fluoro-pyrrolidine-2-carboxylic acid 3-chloro-2-fluoro-benzylamide], the IC50 came to 39 nM.

As to `CC[C@H](C)[C@H](NC(=O)[C@@H]1C[C@H](N)CN1C(=O)Nc1cn(C(N)=O)c2ccccc12)C(=O)OC` [Example 92, (2S,3S)-2-{[(2S,4S)-4-Amino-1-(1-carbamoyl-1H-indol-3-ylcarbamoyl)-pyrrolidine-2-carbonyl]-amino}-3-methyl-pentanoic acid methyl ester], the IC50 was determined as 8650 nM.

In the case of `CC(=O)NC[C@@]1(F)C[C@@H](C(=O)NCc2cccc(Cl)c2F)N(C(=O)Nc2cn(C(N)=O)c3ccccc23)C1` [Example 221, (2S,4S)-4-(Acetylamino-methyl)-4-fluoro-pyrrolidine-1,2-dicarboxylic acid 1-[(1-carbamoyl-1H-indol-3-yl)-amide] 2-(3-chloro-2-fluoro-benzylamide)], the IC50 was 23 nM. Same read-out and setting: the value for `NC(=O)n1cc(NC(=O)N2N=CC[C@@H]2C(=O)NCc2cccc(Cl)c2F)c2ccccc21` (single isomer, unassigned) [Example 363, R^§)-4,5-Dihydro-pyrazole-1,5-dicarboxylic acid 1-[(1-carbamoyl-1H-indol-3-yl)-amide]5-(3-chloro-2-fluoro-benzylamide] was 9250 nM.
